Literature values as cited in patent US20140356497A1, “Composition” (Natural Biotechnology SPRL, priority 2011, published 2014).

System: Red Delicious apples
Settings: 0.25% calcium ascorbate; considered unsatisfactory

calcium ascorbate
time for which Red Delicious apples are preserved: ≤ 1 h
